Measurements from patent US7790752B2, “Indol-3-yl-carbonyl-azaspiro derivatives” (Hoffmann-La Roche Inc., priority 2005, dated 2010).

Molecular target: T1, human V1a receptor (Homo sapiens, UniProt P37288)
T1 construct: expressed in transfected cells; host or cells: HEK293 cells, transiently transfected; membrane preparation
Assay: human V1a receptor binding (3H-Vasopressin SPA, HEK293 membranes)
Settings: displacement of 3H-Vasopressin; membranes of HEK293 cells transiently transfected with human V1a receptor; Ki from IC50 by Cheng-Prussoff equation
Procedure: The human V1a receptor was cloned by RT-PCR from total human liver RNA. The coding sequence was subcloned in an expression vector after sequencing to confirm the identity of the amplified sequence. […] Cell membranes were prepared from HEK293 cells transiently transfected with the expression vector and grown in 20 liter fermenters with the following protocol.
50 g of cells are resuspended in 30 ml freshly prepared ice cold Lysis buffer (50 mM HEPES, 1 mM EDTA, 10 mM MgCl2 adjusted to pH=7.4+complete cocktail of protease inhibitor (Roche Diagnostics)). Homogenized with Polytron for 1 min and sonicated on ice for 2×2 minutes at 80% intensity (Vibracell sonicator). The preparation is centrifuged 20 min at 500 g at 4° C., the pellet is discarded and the supernatant centrifuged 1 hour at 43,000 g at 4° C. (19,000 rpm). The pellet is resuspended in 12.5 ml Lysis buffer+12.5 ml Sucrose 20% and homogenized using a Polytron for 1-2 min. The protein concentration is determined by the Bradford method, and aliquots are stored at −80° C. until use. For binding studies 60 mg Yttrium silicate SPA beads (Amersham) are mixed with an aliquot of membrane in binding buffer (50 mM Tris, 120 mM NaCl, 5 mM KCl, 2 mM CaCl2, 10 mM MgCl2) for 15 minutes with mixing. 50 ul of bead/membrane mixture is then added to each well of a 96 well plate, followed by 50 ul of 4 nM 3H-Vasopressin (American Radiolabeled Chemicals). For total binding measurement 100 ul of binding buffer are added to the respective wells, for non-specific binding 100 ul of […] cold vasopressin and for compound testing 100 ul of a serial dilution of each compound in 2% DMSO. The plate is incubated 1 h at room temperature, centrifuged 1 min at 1000 g and counted on a Packard Top-Count. Non-specific binding counts are subtracted from each well, and data is normalized to the maximum specific binding set at 100%. To calculate an IC 50 the curve is fitted using a non-linear regression model (XLfit), and the Ki is calculated using the Cheng-Prussoff equation.

T1 sequence (P37288 whole entry): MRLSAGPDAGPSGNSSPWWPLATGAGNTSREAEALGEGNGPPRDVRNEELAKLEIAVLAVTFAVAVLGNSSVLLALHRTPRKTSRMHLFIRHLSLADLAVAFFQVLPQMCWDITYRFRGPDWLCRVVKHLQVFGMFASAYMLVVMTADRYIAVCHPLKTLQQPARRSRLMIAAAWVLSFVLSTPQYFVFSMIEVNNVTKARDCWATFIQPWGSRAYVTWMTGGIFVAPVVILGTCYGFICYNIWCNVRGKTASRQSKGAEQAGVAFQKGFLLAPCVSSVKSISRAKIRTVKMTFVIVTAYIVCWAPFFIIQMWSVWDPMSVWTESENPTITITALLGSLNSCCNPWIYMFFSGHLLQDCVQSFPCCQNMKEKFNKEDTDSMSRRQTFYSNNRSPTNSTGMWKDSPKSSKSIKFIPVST

| SMILES | Ki |
| --- | --- |
| Cc1c(C(=O)N2CCC3(CC2)OCCO3)c2ccccc2n1Cc1ccccc1 [Example 15, (1-Benzyl-2-methyl-1H-indol-3-yl)-(1,4-dioxa-8-aza-spiro[4.5]dec-8-yl)-methanone] | 424 nM |
| CN(C)CCn1cc(C(=O)N2CCC3(CC2)C(=O)N(C)CN3c2ccccc2)c2ccc(Cl)cc21 [Example 7, 8-({6-Chloro-1-[2-(dimethylamino)ethyl]-1H-indol-3-yl}carbonyl)-3-methyl-1-phenyl-1,3,8-triazaspiro[4.5]decan-4-one] | 156 nM |
| Cc1c(C(=O)N2CCC3(CC2)C(=O)N(C)CN3c2ccccc2)c2ccccc2n1Cc1ccccc1 [Example 1, 8-[(1-Benzyl-2-methyl-1H-indol-3-yl)carbonyl]-3-methyl-1-phenyl-1,3,8-triazaspiro[4.5]decan-4-one] | 368 nM |
| CNC(=O)Cn1cc(C(=O)N2CCC3(CC2)C(=O)N(C)CN3c2ccccc2)c2ccc(Cl)cc21 [Example 8, 2-{6-Chloro-3-[(3-methyl-4-oxo-1-phenyl-1,3,8-triazaspiro[4.5]dec-8-yl)carbonyl]-1H-indol-1-yl}-N-methylacetamide] | 37 nM |
| CN(C)CCNC(=O)Cn1cc(C(=O)N2CCC3(CC2)C(=O)N(C)CN3c2ccccc2)c2ccc(Cl)cc21 [Example 14, 2-{6-Chloro-3-[(3-methyl-4-oxo-1-phenyl-1,3,8-triazaspiro[4.5]dec-8-yl)carbonyl]-1H-indol-1-yl}-N-[2-(dimethylamino)ethyl]acetamide] | 184 nM |
| CN1CN(c2ccccc2)C2(CCN(C(=O)c3cn(Cc4cccc(Cl)c4F)c4cc(Cl)ccc34)CC2)C1=O [Example 13, 8-{[6-Chloro-1-(3-chloro-2-fluorobenzyl)-1H-indol-3-yl]carbonyl}-3-methyl-1-phenyl-1,3,8-triazaspiro[4.5]decan-4-one] | 73 nM |
| Cc1c(C(=O)N2CCC3(CC2)C(=O)NCN3c2ccccc2)c2ccccc2n1Cc1ccccc1 [Example 2, 8-(1-Benzyl-2-methyl-1H-indole-3-carbonyl)-1-phenyl-1,3,8-triaza-spiro[4.5]decan-4-one] | 367 nM |
| CN1CN(c2ccccc2)C2(CCN(C(=O)c3cn(Cc4cc(F)cc(F)c4)c4cc(Cl)ccc34)CC2)C1=O [Example 9, 8-{[6-Chloro-1-(3,5-difluorobenzyl)-1H-indol-3-yl]carbonyl}-3-methyl-1-phenyl-1,3,8-triazaspiro[4.5]decan-4-one] | 21 nM |
| CN1CN(c2ccccc2)C2(CCN(C(=O)c3cn(Cc4ccccc4)c4cc(Cl)ccc34)CC2)C1=O [Example 11, 8-[(1-Benzyl-6-chloro-1H-indol-3-yl)carbonyl]-3-methyl-1-phenyl-1,3,8-triazaspiro[4.5]decan-4-one] | 45 nM |
| CN(C)C(=O)Cn1cc(C(=O)N2CCC3(CC2)C(=O)N(C)CN3c2ccccc2)c2ccc(Cl)cc21 [Example 10, 2-{6-Chloro-3-[(3-methyl-4-oxo-1-phenyl-1,3,8-triazaspiro[4.5]dec-8-yl)carbonyl]-1H-indol-1-yl}-N,N-dimethylacetamide] | 14 nM |
| O=C(c1c[nH]c2cc(Cl)ccc12)N1CCC2(CC1)OCCO2 [Example 16, 8-[(6-Chloro-1H-indol-3-yl)carbonyl]-1,4-dioxa-8-azaspiro[4.5]decane] | 284 nM |
